In publication PMC3942691, “The Dipeptide Monoester Prodrugs of Floxuridine and Gemcitabine—Feasibility of Orally Administrable Nucleoside Analogs” (Pharmaceuticals, 2014):
Read-outs that look alike come from different tables or passages of the source.

How the values were obtained:
[1] = tested on: AsPC-1 cells; assay: Cell proliferation assay (XTT) in AsPC-1 cells; format: cell-based; conditions: 24 h recovery
Experimental: Cell proliferation studies were conducted with Panc-1 and AsPC-1 cells. The cells were seeded into 96-well plates at 80,000 cells per well and allowed to attach/grow for 48 h before drug solutions were added. The culture medium (DMEM +10% fetal bovine serum or RPMI-1640 +10% fetal bovine serum) was removed and the cells were gently washed once with sterile pH 6.0 uptake buffer. Floxuridine, 5′-L-phenylalanyl-L-tyrosyl-floxuridine, gemcitabine and 5′-L-phenylalanyl-L-tyrosyl-gemcitabine were 2-fold serially diluted in pH 6.0 uptake buffer from 5 to 0.078 mmol/L. Buffer alone was used as a 100% viability control. The wash buffer was removed and 30 µL drug solution per well was added and incubated at 37 °C for 2 h in the cell incubator. After this time, the drug solutions were removed and the cells were again gently washed twice with sterile uptake buffer. The culture medium was then added to each well after washing. The cells were allowed to recover for 24 h before evaluating cell viability via 2,3-bis[2-methoxy-4-nitro-5-sulfophenyl]-2H-tetrazolium-5-carboxanilide inner salt (XTT) assays. A mixture (30 µL) containing XTT (1 mg/mL) in sterile RPMI-1640 without phenol red and phenazine methosulfate (N-methyldibenzopyrazine methyl sulfate in sterile PBS, 0.383 mg/mL) reagents were added to the cells and incubated at 37 °C for 1 h, after which the absorbance at 450 nm was read. The concentrations required to inhibit cell growth by 50% (GI50) were calculated using GraphPad Prism version 3.0 by nonlinear data fitting.

[2] = tested on: Caco-2 cells; assay: Uptake study in Caco-2 cells; format: cell-based; conditions: 0.1 mM, 1 h
Experimental: (§1) Caco-2, Panc-1, and AsPC-1 cells were grown on a 6-well plate for 18, 6, and 6 days, respectively. Wells were rinsed with MES (pH 6.0) buffer twice. Fresh MES buffer was reapplied to each well and incubated at 37 °C for 15 min. Each drug was individually tested from freshly prepared solutions in MES buffer (0.1 mM, total 0.3 mL) with the presence and the absence of 10 mM glycyl-proline (Gly-Pro). The solution was placed in each well and incubated at 37 °C for 60 min. Drug solution was removed and 3 mL of ice-cold PBS was immediately placed in each well. Each well was rinsed with 3 mL of cold-PBS twice and 0.5 mL of methanol/H2O (1:1) containing 0.1% TFA was placed in each well. The cell suspension was collected and transferred to a new tube. Those tubes were spun at 1,000 × g at 4 °C for 5 min. The supernatant was mixed with equal amount of water with either 0.1% formic acid or 0.1% ammonium hydroxide for LC-MS analysis. The cell pullets were used to determine protein amount with the Bio-Rad DC Protein Assay using bovine serum albumin as a standard.
(§2) The LC-MS analytical method of 5′-mono amino acid ester prodrugs of floxuridine has been reported previously. The LC-MS analysis of dipeptide monoester prodrugs of floxuridine and gemcitabine along with their parent drugs was modified and performed in a similar manner. Briefly, LC-MS analysis of the uptake drug amount was performed in triplicate on LCMS-2010EV (Shimadzu Scientific Instruments, Kyoto, Japan) equipped with an ESI (electrospray ionization) source. The Shimadzu LC-MS system consisting of Shimadzu LC-20AD pumps with DGU-20A in-line vacuum degasser units, and SIL-20A HT autosampler with an InertSustain C-18, 2.1 × 50 mm, 3 µm particle size, (GL Sciences, Torrance, CA, USA) was used for the separation and the effluent from the column was introduced directly to the ionization source. The system was controlled by Shimadzu LCMS solution software (version 3) to collect and process data. All samples were run with Solvent A and Solvent B with Solvent B gradient changing from 0%–90% at a rate of 13.8%/min over a 22 min run. […]

[3] = tested on: AsPC-1 cells; assay: Uptake study in AsPC-1 cells; format: cell-based; conditions: 0.1 mM, 1 h
Experimental: as §1, §2

[4] = tested on: Panc-1 cells; assay: Uptake study in Panc-1 cells; format: cell-based; conditions: 0.1 mM, 1 h
Experimental: as §1
(§3) The LC-MS analytical method of 5′-mono amino acid ester prodrugs of floxuridine has been reported previously. The LC-MS analysis of dipeptide monoester prodrugs of floxuridine and gemcitabine along with their parent drugs was modified and performed in a similar manner. Briefly, LC-MS analysis of the uptake drug amount was performed in triplicate on LCMS-2010EV (Shimadzu Scientific Instruments, Kyoto, Japan) equipped with an ESI (electrospray ionization) source. The Shimadzu LC-MS system consisting of Shimadzu LC-20AD pumps with DGU-20A in-line vacuum degasser units, and SIL-20A HT autosampler with an InertSustain C-18, 2.1 × 50 mm, 3 µm particle size, (GL Sciences, Torrance, CA, USA) was used for the separation and the effluent from the column was introduced directly to the ionization source. The system was controlled by Shimadzu LCMS solution software (version 3) to collect and process data. All samples were run with Solvent A and Solvent B with Solvent B gradient changing from 0%–90% at a rate of 13.8%/min over a 22 min run. The mobile phase consisted of 0.1% TFA/water (Solvent A) and 0.1% TFA/acetonitrile (Solvent B) for gemcitabine, gemcitabine prodrug and floxuridine prodrug. The mobile phase consisted of 0.1% ammonium hydroxide/water (Solvent A) and 0.1% ammonium hydroxide /acetonitrile (Solvent B) for floxuridine. The ESI probe was operated with a detector voltage of 1.5 kV, CDL temperature of 250 °C, heat block of 200 °C, and nebulizing gas flow of […] in positive mode for gemcitabine prodrugs and their metabolites. The drying gas was N2 delivered at 0.1 MPa.

[5] = Drug concentration and species in mouse plasma after in situ perfusion; format: in vivo; conditions: for parent drug, share of totally observed amount in plasma: parent drug perfused; for parent drug, share of totally observed amount in plasma / first metabolite (5-FU or cytosine) in plasma: mouse plasma after in situ perfusion; for prodrug form, share of totally observed amount in plasma: mouse plasma at 2 h following in situ perfusion
Experimental: All animal experiments were conducted using protocols approved by the University of Michigan Committee of Use and Care of Animals (UCUCA). Female BALB/c mice (Charles River, IN, USA) weighing 20–25 g were used for all perfusion studies. Prior to each experiment, mice were fasted overnight with free access to water.
At the start of the study, the test compound (100 µM) in perfusion buffer (pH 6.0) including phenol red was perfused through the intestinal segment (Watson-Marlow Pump 323S, Watson-Marlow Bredel Inc., Wilimington, MA, USA), at the flow rate of 0.1 mL/min. The perfusion buffer was perfused for 30 min to assure steady-state and samples were taken in every 10 min for 90 min. At the end of perfusion, blood samples were collected by cardiac puncture. Blood samples with heparin were centrifuged at 1,000 × g for 10 min at 4 °C to collect plasma samples for LC-MS analysis. Following the termination of the experiment, the length of each perfused intestinal segment was measured.
as §3

[6] = Chemical stability in 0.01 N HCl, SIF (pH 6.0) and pH 7.4 phosphate buffer; format: physicochemical
Experimental: The nonenzymatic hydrolysis of the prodrugs was determined as described above, except that each well contained pH 7.4 phosphate buffers (10 mmol/L) instead of cell homogenate.
The experiments concerning drug and their prodrug stability were performed at 37 °C in 0.01 N HCl, SIF (pH 6.0), and pH 7.4 phosphate buffer. […] Prodrug metabolites such as floxuridine, 5-fluorouracil (5-FU), gemcitabine, 2′-deoxy-2′,2′-difluorouridine, uracil, and cytosine were monitored along with prodrug disappearance in this experiment.

[7] = Homo sapiens, ASPC1, 2 h exposure
[8] = 0.01 N HCl, 37 °C, read-out: 0.01 N HCl t1/2
[9] = SIF pH 6.0, 37 °C, read-out: SIF pH 6.0 t1/2
[10] = pH 7.4 phosphate buffer, 37 °C, read-out: Buffer pH 7.4 t1/2

Compound	GI50 ([1]; 2 h exposure) [mM]	Parent drug, share of uptake [2] [%]	Parent drug, share of uptake [3] [%]	Parent drug, share of uptake [4] [%]	parent drug, share of totally observed amount in plasma [5]	0.01 N HCl t1/2 ([6]; 0.01 N HCl, 37 °C) [h]	SIF pH 6.0 t1/2 ([6]; SIF pH 6.0, 37 °C) [min]	Buffer pH 7.4 t1/2 ([6]; pH 7.4 phosphate buffer, 37 °C) [min]	GI50 [1, 7] [mM]	Prodrug, share of uptake [2] [%]	Prodrug, share of uptake [3] [%]	Prodrug, share of uptake [4] [%]	drug concentration in mouse plasma, rank among tested compounds ([5]; after in situ perfusion)	first metabolite (5-FU or cytosine) in plasma [5]	prodrug form, share of totally observed amount in plasma [5] [%]	half-life [6, 8] [h]	half-life [6, 9] [h]	half-life [6, 10] [h]	uptake amount [4]
2′,2′-difluoro-2′-deoxyuridine [Gemcitabine]	10.2 ± 1.6	95	90	20	83%	>2	>120	>120											
NC(Cc1ccccc1)C(=O)NC(Cc1ccc(O)cc1)C(=O)OCC1OC(n2cc(F)c(=O)[nH]c2=O)CC1O [5′-L-Phenylalanyl-L-tyrosyl-floxuridine]									4.2 ± 0.1	45	60	98	highest drug concentration	not observed	81	> 2	> 2	> 2	
Nc1ccn(C2OC(COC(=O)C(Cc3ccc(O)cc3)NC(=O)C(N)Cc3ccccc3)C(O)C2(F)F)c(=O)n1 [5′-L-Phenylalanyl-L-tyrosyl-gemcitabine]									5 ± 0.3	6	39	9		one-third	40	> 2	> 2	0.56 ± 0.0233	
O=c1[nH]c(=O)n([C@H]2C[C@H](O)[C@@H](CO)O2)cc1F [Floxuridine, 5-fluoro-2′-deoxyuridine]					only drug observed											> 2	> 2	> 2	not observed
